According to patent publication US11857601B2, “Pharmaceutical composition for cancer treatment comprising fusion protein including IL-2 protein and CD80 protein and anticancer drug” (GI INNOVATION, INC., priority 2020, dated 2024):
Marks after values point to notes of the source that are not given here.

Legend:
LL/2 cell line = experiment: mGI-101 and Axitinib in LL/2 allotransplanted tumor model; format: in vivo, C57BL/6 mice; conditions: mGI-101 3 mg/kg IP, Axitinib 30 mg/kg PO
Procedure: (§1) Mouse-derived colorectal cancer cells, CT26 (Mus musculus, Colon adenocarcinoma), and mouse-derived lung cancer cells, LL/2 (Mus musculus, Lung adenocarcinoma), were purchased from ATCC (USA) and used for the test. The cells to be used for the test were thawed, mixed with RPMI1640 (A1049101, Thermofisher scientific) medium containing 10% FBS (fetal bovine serum, Gibco, 10082-147), and then placed in a cell culture flask, and cultured in a 37° C., 5% CO2 incubator. The cells were washed with PBS, and then the cells were isolated using Trypsin-EDTA (15090, Gibco), and centrifugation (125×g, 5 minutes) was performed to discard the supernatant, and then the cells were suspended in a new medium to obtain the cell suspension. The viability of the cells was identified, and then a cell line was prepared by diluting in a medium to a concentration of 5.0×10^6 cells/mL.
(§2) 6-week-old male BALB/cAnHsd mice or C57BL/6NHsd mice were purchased and used for the test. After the end of the acclimation period of 7 days, the cells were transplanted into healthy animals. The cell suspension (5×10^6 cells/mL) was dispensed, and filled into a disposable syringe, and transplantation of the suspension was performed by subcutaneous administration at 0.1 mL/head in the right dorsal region of the animals. General symptoms were observed once a day during the engraftment and growth period after cell line transplantation.
(§3) After the inoculation of the cell line was performed, when the tumor size at the site to which the cell line was transplanted reached about 50 mm^3, the tumor size of each group was distributed as uniformly as possible according to the ranked tumor size.
(§4) The test substance was administered orally or intraperitoneally, and administered for 3 weeks depending on the composition of the test group. In the case of oral administration, the animals were fixed with the cervical spine skin fixation method, and administered directly into the stomach using a sonde for oral administration. In the case of intraperitoneal administration, the animals were fixed with the cervical spine skin fixation method, and administered intraperitoneally using a syringe equipped with a 26 gauge needle. The administration rate was not to exceed 200 μl/min.
Syngeneic model was prepared by subcutaneously transplanting the LL/2 cell line into C57BL/6 mice, and then the test substance was administered to evaluate the anticancer effect.

CT26 cells [1] = experiment: mGI-101 and Guadecitabine in CT26 allotransplanted tumor model; format: in vivo, BALB/c mice; conditions: for tumor size level vs control: day 10, alone or + Guadecitabine
From the text: CT26 cells were purchased from ATCC (USA) and cultured in RPMI1640 medium (Gibco) containing 10% FBS (Gibco) and 1% antibiotic/antifungal agent (Gibco). The cultured cells were harvested using trypsin (Gibco) and then suspended in PBS. In order to establish an allotransplanted tumor model, 5×10^5 of CT26 cells were subcutaneously injected into the right flank of BALB/c female mice (8-week-old) (FIG. 97).
The tumor grafts of the mice were identified about day 7 after cell inoculation, and the mice were randomly assigned based on tumor volume (50-120 mm^3), each group including 13 mice.
Clinical symptoms such as a disease and a behavioral change were observed once a day during the test period, and deceased animals were identified, and the mice were sacrificed when the tumor size reached a size of 4,000 mm^3. The size of the CT26 solid cancer was measured using a tumor 3D scanner (TM900, Peria, Belgium). […] The anti-tumor efficacy was evaluated as compared with the vehicle control. All statistical calculations were performed using Prism 8.0 (Graph Pad Software Inc, USA). The comparison of tumor volume measurements was made through two-way analysis of variance followed by Tukey's multiple comparison test. A p value of less than 0.05 was considered significant.

EMT6 cells = experiment: mGI-101 and Paclitaxel in EMT6 allotransplanted tumor model; format: in vivo, BALB/c mice
Procedure: EMT6 cells were purchased from ATCC (USA) and cultured in Waymouth MB 751/1 medium (WELGENE) containing 10% FBS (Gibco) and 1% antibiotic/antifungal agent (Gibco). The cultured cells were harvested using trypsin (Gibco), and then a high-concentration cell suspension (2×10^6 cells/0.4 mL) for 10 mice was prepare with PBS and stored on ice until injected into mice. In order to establish an allotransplanted tumor model, the skin was incised slightly away from the 4th nipple position from the upper right of the ventral region of BALB/c female mice (7-week-old), and the location of mammary fat pad at the incised site was identified, and then EMT6 cell line prepared inside the mammary fat pad was injected at 2×10^5 cells/40 uL/head.
A certain period of time after cell inoculation of the tumor grafts of the mice, the tumor volume was measured for animals with no abnormalities in the health condition of the animals, and the subjects were selected so that the average of each group reached less than 70-100 mm^3, and the selected animals were assigned as evenly as possible based on tumor volume and body weight, each group including 10 animals. As shown in Table 24 and FIG. 106, the test groups were configured and the test substances were administered.
Clinical symptoms such as a disease and a behavioral change were observed once a day during the test period, and deceased animals were identified, and the mice were sacrificed when the tumor size reached a size of 4,000 mm^3.
The tumor volume before administration of each subject was set as the value measured at the time of grouping, and the anti-tumor efficacy was evaluated as compared with the vehicle control.
All statistical calculations were performed using Prism 8.0 (Graph Pad Software Inc, USA). The comparison of tumor volume measurements was made through two-way analysis of variance followed by Tukey's multiple comparison test. A p value of less than 0.05 was considered significant.

CT26 cells [2] = experiment: mGI-101 and Axitinib in CT26 allotransplanted tumor model; conditions: mGI-101 3 mg/kg IP, Axitinib 30 mg/kg PO;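 note: subcutaneous CT26 syngeneic tumors in male BALB/c mice, dosing started once tumors were near 50 mm^3, drugs given orally or intraperitoneally for up to 3 weeks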
Procedure: as §1, §2, §3, §4
Syngeneic model was prepared by subcutaneously transplanting the CT26 cell line into Balb/c mice, and then the test substance was administered to evaluate the anticancer effect.

Substance “mGI101: fusion protein: mouse CD80, Ig hinge, Fc domain, linker, IL-2 variant (2M) (R38A, F42A); SEQ ID NO: 15” has a Tumor size (LL/2 cell line; Day 0, mean ± SD) of 55.70 ± 11.48 mm^3, a Tumor growth inhibition (LL/2 cell line; Day 2, mean ± SD) of −7.12 ± 34.31% and a Tumor size (LL/2 cell line; Day 2, mean ± SD) of 99.18 ± 19.96 mm^3. The Tumor growth inhibition (LL/2 cell line; Day 5, mean ± SD) was 1.83 ± 27.19%, the Tumor size (LL/2 cell line; Day 5, mean ± SD) was 179.58 ± 39.71 mm^3 and the Tumor growth inhibition (LL/2 cell line; Day 7, mean ± SD) was 12.67 ± 19.15%. For the same substance, the Tumor size (LL/2 cell line; Day 7, mean ± SD) was 409.37 ± 72.98 mm^3, the Tumor growth inhibition (LL/2 cell line; Day 9, mean ± SD) was 5.78 ± 24.08% and the Tumor size (LL/2 cell line; Day 9, mean ± SD) was 749.00 ± 174.47 mm^3. For the same substance, the Tumor growth inhibition (LL/2 cell line; Day 12, mean ± SD) was 6.89 ± 28.47%, the Tumor size (LL/2 cell line; Day 12, mean ± SD) was 1066.72 ± 307.18 mm^3 and the Tumor growth inhibition (LL/2 cell line; Day 14, mean ± SD) was 1.85 ± 36.39%. It also gave a Tumor size (LL/2 cell line; Day 14, mean ± SD) of 1608.00 ± 572.50 mm^3, a Tumor growth inhibition (LL/2 cell line; Day 16, mean ± SD) of 0.91 ± 39.37% and a Tumor size (LL/2 cell line; Day 16, mean ± SD) of 2200.03 ± 850.12 mm^3. It also gave a Tumor growth inhibition (LL/2 cell line; Day 19, mean ± SD) of −5.99 ± 39.91%, a Tumor size (LL/2 cell line; Day 19, mean ± SD) of 3223.87 ± 1191.11 mm^3 and a Tumor growth inhibition (LL/2 cell line; Day 21, mean ± SD) of −2.78 ± 32.04%. The Tumor size (LL/2 cell line; Day 21, mean ± SD) was 5431.08 ± 1673.60 mm^3, the “tumor size level vs control” value (CT26 cells [1]; mGI-101 0.6 mg/kg) was “tended to be lower” and the “tumor size level vs control” value (CT26 cells [1]; mGI-101 3 mg/kg) was “statistically significantly lower”. For the same substance, the “tumor growth inhibitory effect (individual tumor sizes)” value (CT26 cells [1]; mouse, in vivo) was “exhibited the tumor growth inhibitory effect”, the “number of mice with tumor growth inhibition rate of 30% or more” value (EMT6 cells; EMT6, 10 animals per group) was 6 mice and the “number of mice with tumor growth inhibition rate of 50% or more” value (EMT6 cells; EMT6, 10 animals per group) was 5 mice. For the same substance, the “number of mice with tumor growth inhibition rate of 80% or more” value (EMT6 cells; EMT6, 10 animals per group) was 5 mice, the “tumor size level vs control” value (EMT6 cells; day 11, mGI-101 3 mg/kg i.v. QW, Paclitaxel 10 mg/kg i.p. 7 consecutive days) was “statistically significantly lower” and the “mice with complete remission” value (EMT6 cells; day 13, 10 animals per group) was 2 mice. For the same substance, the “tumor size vs control” value (EMT6 cells; day 13, mGI-101 3 mg/kg i.v. QW, Paclitaxel 10 mg/kg i.p. 7 consecutive days) was “statistically significantly lower”, the Tumor size (CT26 cells [2]; Day 0, mean ± SD) was 63.53 ± 11.56 mm^3 and the Tumor growth inhibition (CT26 cells [2]; Day 5, mean ± SD) was 58.32 ± 24.95 %. The Tumor size (CT26 cells [2]; Day 5, mean ± SD) was 186.53 ± 76.61 mm^3, the Tumor growth inhibition (CT26 cells [2]; Day 7, mean ± SD) was 62.12 ± 38.89 % and the Tumor size (CT26 cells [2]; Day 7, mean ± SD) was 249.93 ± 149.08 mm^3. The Tumor growth inhibition (CT26 cells [2]; Day 9, mean ± SD) was 62.87 ± 34.95 %, the Tumor size (CT26 cells [2]; Day 9, mean ± SD) was 290.71 ± 165.17 mm^3 and the Tumor growth inhibition (CT26 cells [2]; Day 12, mean ± SD) was 66.48 ± 29.50 %. The Tumor size (CT26 cells [2]; Day 12, mean ± SD) was 352.46 ± 195.64 mm^3, the Tumor growth inhibition (CT26 cells [2]; Day 14, mean ± SD) was 65.87 ± 29.12 % and the Tumor size (CT26 cells [2]; Day 14, mean ± SD) was 520.04 ± 307.47** mm^3. The Tumor growth inhibition (CT26 cells [2]; Day 16, mean ± SD) was 52.36 ± 41.33 %, the Tumor size (CT26 cells [2]; Day 16, mean ± SD) was 962.28 ± 634.90** mm^3 and the Tumor growth inhibition (CT26 cells [2]; Day 19, mean ± SD) was 41.48 ± 52.17 %. The Tumor size (CT26 cells [2]; Day 19, mean ± SD) was 1395.48 ± 982.61** mm^3, the Tumor growth inhibition (CT26 cells [2]; Day 21, mean ± SD) was 44.57 ± 46.55 % and the Tumor size (CT26 cells [2]; Day 21, mean ± SD) was 1987.45 ± 1320.62**** mm^3.
